Laboratory results from PMC11641755, “Features of Highly Homologous T-Cell Receptor Repertoire in the Immune Response to Mutations in Immunogenic Epitopes” (International Journal of Molecular Sciences, 2024).

What was measured:
Type in all cases: cell-based, human
[1] = tested on: TCR NYN-3 (Jurkat E6-1 TPR cells)
[2] = tested on: TCR NYN-2 (Jurkat E6-1 TPR cells)
[3] = tested on: TCR NYN-1 (Jurkat E6-1 TPR cells)
[4] = tested on: NYN peptide-specific TCRs (NYN-1 to NYN-4 Jurkat E6-1 TPR cell lines)

NYDYMYRLF [N450D + L452M]
effect of the mutation on response / affinity of NYN-3 (in words) [1]: slightly disrupted the response
effect of the mutation on response / affinity of NYN-2 (in words) [2]: slightly disrupted the response
effect of the mutation on response / affinity of NYN-1 (in words) [3]: not

NYDYWYRLF [N450D + L452W]
effect of the mutation on response / affinity of NYN-3 (in words) [1]: increased the affinity
effect of the mutation on response / affinity of NYN-2 (in words) [2]: increased the affinity
effect of the mutation on the T-cell response / recognition (in words) [4]: did not affect the T-cell response
